Reference: article PMC9021288 (Nature Communications, 2022)
Several values for one entry are separate records, joined by “and”; a condition that tells them apart may be missing. Equal entries are not always repeated. Where two headings read alike, the source gives them in different places.

Assays:
[1] = system: P. falciparum NF54 asexual blood-stage parasites; assay: 72-h asexual blood-stage replication assay (SYBR Green); format: cell-based, Plasmodium falciparum; design: key to asexual blood stages growth, dose-response: % growth; DMSO control = 100%, DHA/epoxomicin-treated = no growth
Experimental: Replication assays were performed using a SYBR Green method as described previously. Briefly, asynchronous parasites were diluted to 0.83% parasitemia, 3% hematocrit in 30 µl medium, and added to 30 µl of diluted compounds in medium (0.1% DMSO final concentration) in black 384-wells plates. After a 72-h incubation, 30 µl of SYBR Green diluted in lysis buffer was added according to the manufacturer’s protocol (Life Technologies). Fluorescence intensity was measured on a BioTek Synergy 2 Plate Reader after 1-h incubation and was normalized to a DMSO control (100% growth) and DHA- or epoxomicin-treatment (no growth). […] Parasite survival was assessed by flow cytometry on an Accuri C6 (BD Biosciences) with BD C6 Plus software using SYBR Green and MitoTracker Deep Red FM (Life Technologies) as nuclear stain and vital dye, respectively, and data were analyzed using FlowJo (10.5.0). […] Luminescence was measured after 72 h using the Renilla-Glo(R) Luciferase Assay System (Promega E2750) and the GlomAX® Discover Multimode Microplate Reader (Promega). The luminescence values were normalized to DMSO vehicle (100% growth) and 200 nM chloroquine-treated (no growth) samples as controls.
Dose-response assays were analyzed by a nonlinear regression using a four-parameter model and the least squares method to find the best fit. One-way Analysis of variance (ANOVA) was performed using the Bonferroni’s Multiple Comparison Test. For the majority of experiments, 2-4 biological replicates were performed. Typically, 2 replicates were performed for screening activities, and a minimum of 3 replicates are performed for other experiments unless stated otherwise.

[2] = system: cryopreserved human primary hepatocytes; assay: in vitro; conditions: human, hepatocytes
Description: Briefly, cryopreserved human primary hepatocytes were thawed and cultured as described above.

[3] = system: P. falciparum Pf3D7^0087/N9; assay: Single dose in vivo efficacy in humanized NSG mice; design: species or system Plasmodium falciparum; conditions: for parasitemia outcome: single 50 mg/kg oral gavage on day 4, over three days
Experimental: The effect of pantothenamides on P. falciparum Pf3D7^0087/N9 [66] in vivo was assessed in female NSG mice (NODscidIL2Rγ^null) at the Swiss Tropical and Public Health Institute (Basel, Switzerland) as described previously (Supplementary Table 30)[15],[67]. Briefly, humanized mice were engrafted daily with human erythrocyte suspensions from days -11 to day 6. […] On day 4, groups of n = 2 mice were treated with a single dose pantothenamides or chloroquine (50 mg/kg) by oral gavage. […] Serial dilutions were prepared in the same solvent to concentrations 50 times higher than the corresponding CAL and QC concentrations. The concentrations were calculated under consideration of purity and salt factor. The spiking of the CAL and QC sample were performed at room temperature.

[4] = per replicate experiment, read-out: IC50, asexual blood stages
[5] = day 5 post infection, 50 mg/kg p.o. on day 4, per mouse, 50 mg/kg
[6] = day 6 post infection, per mouse
[7] = day 7 post infection, per mouse
[8] = asexual blood stages NF54 parasites, read-out: IC50

SMILES | asexual blood stages growth, dose-response ([1]; Log concentration (M) -6) | asexual blood stages growth, dose-response ([1]; Log concentration (M) -6.5) | asexual blood stages growth, dose-response ([1]; Log concentration (M) -8.5) | asexual blood stages growth, dose-response ([1]; Log concentration (M) -9) | asexual blood stages growth, dose-response ([1]; Log concentration (M) -9.5) | asexual blood stages growth, dose-response ([1]; Log concentration (M) -10) | IC50 [1, 4] | Human hepatocyte CLint [2] [µl/min/10^6 cells] | Parasitemia [3, 5] | Parasitemia [3, 6] | Parasitemia [3, 7] | parasitemia outcome [3] | IC50 [1, 8] [nM] | asexual blood stages growth, dose-response ([1]; Log concentration (M) -7) | asexual blood stages growth, dose-response ([1]; Log concentration (M) -7.5) | asexual blood stages growth, dose-response ([1]; Log concentration (M) -8) | IC50 ([1]; Plasmodium falciparum, NF54, 72 h, 72-h asexual growth assay, range of independent experiments, read-out: Asexual blood stage IC50 range (N)) [nM] | IC50 ([1]; Plasmodium falciparum, NF54, asexual blood stages NF54 parasites) [nM] | IC50 ([1]; Plasmodium falciparum, NF54, per replicate experiment, read-out: IC50, asexual blood stages) [nM]
CC(C)(CO)[C@@H](O)C(=O)NCCNC(=O)c1cc(C#N)ccc1F [MMV976394] | 3.4 and 4.05 | 2.2 and 3.95 | 87.25 and 70.5 | 94.8 and 82.75 | 101.5 and 89.75 | 97.1 and 96.9 | 25 nM and 6.26 nM | 0.2 | 0.56 and 0.41 | 0.32 | 0.17 | not fully cleared |  |  |  |  |  |  | 
C[C@@H](CNC(=O)[C@H](O)C(C)(C)CO)NC(=O)c1cccc(F)c1 (stereo in doubt) [MMV1542001] |  |  | 33 and 19.45 | 66.7 and 78.5 | 89.15 and 95.45 | 79.7 and 90.9 | 2.45 nM and 1.87 nM | 0.5 | 0.4 and 0.31 | 0.06 and 0.01 | 0 | reduced parasitemias below detectable levels | 2.4 |  |  |  |  |  | 
C[C@@H](CNC(=O)[C@H](O)C(C)(C)CO)NC(=O)c1cccc(C#N)c1 (stereo in doubt) [MMV884962] |  |  | 80.1 and 73.8 | 84.85 and 73.05 | 95.6 and 92.6 | 93.15 and 89.75 | 12.1 nM and 7.41 nM | 0.3 | 0.31 and 0.28 | 0.05 | 0 | reduced parasitemias below detectable levels | 7.4 | 1.15 and 1.45 | 11.25 and 6.6 | 55.2 and 32.3 |  |  | 
C[C@@H](CNC(=O)[C@H](O)C(C)(C)CO)NC(=O)c1cc(C#N)ccc1F [MMV693182] |  |  | 59.8 and 65.55 | 98.45 and 83.35 | 91.35 and 91.95 | 80.55 and 97.8 | 6.21 nM |  | 0.28 and 0.38 | 0.03 and 0.05 | 0.02 | not fully cleared |  |  | 14.55 and 11.25 | 38 and 38.5 | 6.2 to 7.5 | 7.5 | 7.54
